From patent US20220362279A1, “USE OF OLIGONUCLEOTIDES FOR THE TREATMENT AND PREVENTION OF PAIN” (CONSEJO NACIONAL DE INVESTIGACIONES CIENTÍFICAS Y TÉCNICAS, priority 2018, published 2022) come the findings set out here.

The test system of assay [1] is rats with postsurgical pain (plantar incision). The assay is described as follows: Opioid sparing: morphine in VEH- or IMT504-pre-treated rats with plantar incision, mechanical withdrawal threshold. The assay is classed as in vivo, rat. The note with it: for effect on withdrawal thresholds: VEH-pre-treated injured rats, 6 h and 1 day after injury. How it is done:
In all experiments, the oligodeoxynucleotide (ODN) IMT504, with sequence 5′-[…]-3′ (SEQ ID No 1) was used. The HPLC-grade phosphorothioate ODN (Biosynthesis Inc., Lewisville, Tex., USA) was suspended in sterile saline solution (VEH, 0.9% NaCl; 20 mg/ml; storage concentration) and assayed for LPS contamination. Working concentration doses (6 mg/kg) were obtained by additional dissolving in sterile VEH. The ODN was administered subcutaneously, at a final volume of 200-300 μl, depending on animal weight.
Experiments addressing the opioid sparing effects of IMT504 included the subcutaneous (s.c.) injection of morphine hydrochloride trihydrate (Neocalmans, 10 mg/ml, Soubeiran Chobet, Buenos Aires, Argentina) at three different concentrations (1, 3 or 10 mg/kg, dissolved in sterile distilled water).
The rat hind paw plantar incision model of postoperative pain was used as previously described [Brennan, T. J., E. P. Vandermeulen, and G. F. Gebhart, Characterization of a rat model of incisional pain. Pain, 1996. 64(3): p. 493-501. Briefly, rats were anesthetized using isoflurane (5% induction, 2.5% maintenance, 0.8 l/min O2 flow rate; Piramal Healthcare, UK) and the plantar aspect of the right hind paw was disinfected with povidone iodine. A 1.0-cm longitudinal incision was made 0.5 cm from the end of the heel. The underlying flexor muscle was also incised longitudinally, allowing the muscle origin and insertion to remain intact. After hemostasis by gentle pressure, the skin was closed with sutures of 5-0 nylon.
Rats were divided into injured rats receiving IMT504 (6 mg/kg, dissolved in VEH) or VEH alone, 48h and 24 h prior to surgery. These groups were further subdivided into: 1) Rats followed during 3 days after the injury (n=6 per group), for assessment of pain-like behavior after the co-administration of morphine dissolved in injectable water (vehicle) at different doses, 6 and 24 h after injury; 2) Rats followed during 3 days after the injury (n=6 per group), for assessment of pain-like behavior after the co-administration of injectable water (vehicle) alone, 6 and 24 h after injury; 3) Rats followed during 21 days (n=8), for analysis of the administration of naloxone, 3 days after injury.
Mechanical withdrawal thresholds were assessed by using von Frey nylon monofilaments of different bending forces (1.4, 2, 6, 8, 10, 15 and 26 g; Stoelting Inc., Wooddale, USA) and the modified up-down method of Dixon, as described by Chaplan and cols. (Chaplan, S. R., et al., Quantitative assessment of tactile allodynia in the rat paw. J Neurosci Methods, 1994. 53(1): p. 55-63) , to establish the 50% withdrawal threshold. Results were obtained using the formula: 50% g threshold=[…], where Xf=value (in log units) of the final von Frey hair used; k=tabular value for the pattern of positive/negative responses; and […] difference (in log units) between stimuli. Mechanical withdrawal thresholds were tested 48 h before surgery (basal responses), and 6 h, 1, 3, 7, 14 and 21 days after injury.
A dose-response experiment to evaluate the effect of the s.c. administration of morphine at different doses (10, 3 and 1 mg/kg), 6 h or 1 day after injury, in VEH- or IMT504-treated rats (time-points were chosen based on the fact that a certain degree of mechanical withdrawal threshold alterations was still present in IMT504-treated rats was done, which allowed to test if within this therapeutic window, it was possible to fully revert pain-like behavior using smaller morphine doses). […]

Assay [2] has the same test system. The assay is described as follows: Naloxone challenge in IMT504-pre-treated rats with plantar incision, mechanical withdrawal threshold. The assay is classed as in vivo, rat. The note with it: IMT504-treated injured rats; naloxone 2 mg/kg i.p. on day 3 after injury.
Protocol: In all experiments, the oligodeoxynucleotide (ODN) IMT504, with sequence 5′-[sequence]-3′ (SEQ ID No 1) was used. The HPLC-grade phosphorothioate ODN (Biosynthesis Inc., Lewisville, Tex., USA) was suspended in sterile saline solution (VEH, 0.9% NaCl; 20 mg/ml; storage concentration) and assayed for LPS contamination. Working concentration doses (6 mg/kg) were obtained by additional dissolving in sterile VEH. The ODN was administered subcutaneously, at a final volume of 200-300 μl, depending on animal weight.
A group of rats also received an intraperitoneal (i.p.) injection of naloxone hydrochloride (Narxona 0.4 mg/ml; Scott-Cassara, Bs. As., Argentina), at a dose of 2 mg/kg, in order to test if the effect of IMT504 could be blocked by the pan-opioid receptor antagonist.
The rat hind paw plantar incision model of postoperative pain was used as previously described [Brennan, T. J., E. P. Vandermeulen, and G. F. Gebhart, Characterization of a rat model of incisional pain. […] Briefly, rats were anesthetized using isoflurane (5% induction, 2.5% maintenance, 0.8 l/min O2 flow rate; Piramal Healthcare, UK) and the plantar aspect of the right hind paw was disinfected with povidone iodine. A 1.0-cm longitudinal incision was made 0.5 cm from the end of the heel. The underlying flexor muscle was also incised longitudinally, allowing the muscle origin and insertion to remain intact. After hemostasis by gentle pressure, the skin was closed with sutures of 5-0 nylon.
Rats were divided into injured rats receiving IMT504 (6 mg/kg, dissolved in VEH) or VEH alone, 48h and 24 h prior to surgery. […]
Mechanical withdrawal thresholds were assessed by using von Frey nylon monofilaments of different bending forces (1.4, 2, 6, 8, 10, 15 and 26 g; Stoelting Inc., Wooddale, USA) and the modified up-down method of Dixon, as described by Chaplan and cols. (Chaplan, S. R., et al., Quantitative assessment of tactile allodynia in the rat paw. J Neurosci Methods, 1994. 53(1): p. 55-63) , to establish the 50% withdrawal threshold. […]

Structures can show the parent of a compound that is named as a salt.

Consider `CN1CC[C@]23c4c5ccc(O)c4O[C@H]2[C@@H](O)C=C[C@H]3[C@H]1C5.Cl.O.O.O` [morphine, morphine hydrochloride trihydrate, reference compound], for which the “time after injection free of pain-like behavior” value in assay [1] (VEH rats receiving 10 mg morphine) fell in the range of 90 to 180 min. In addition, the “time after administration with fully reversed pain-like behavior” value in assay [1] (VEH rats receiving 1 or 3 mg morphine, both time-points) is on record as 60 min. Moreover, the “effect on withdrawal thresholds” value is “very effective in increasing withdrawal thresholds” in assay [1] (morphine 10 mg/kg s.c.); “milder and comparable effects” in assay [1] (morphine 3 and 1 mg/kg s.c.).

In the case of `C=CCN1CC[C@]23c4c5ccc(O)c4O[C@H]2C(=O)CC[C@@]3(O)[C@H]1C5` [naloxone, naloxone hydrochloride, reference compound], the “withdrawal threshold 15 and 30 min after naloxone” value in assay [2] was “drastic and significant decrease in their withdrawal threshold”.
